Measurements published in US9006205B2, “Antisense oligonucleotides against neutral sphingomyelinase and neutral sphingomyelinase inhibitor GW4869 for degenerative neurological disorders” (Rush University Medical Center, priority 2011, dated 2015).

Columns and labels:
Assay type in all cases: cell-based
N-SMase = assay: Western blot of N-SMase protein after antisense knockdown in primary human neurons; conditions: 48 h with oligonucleotide
Description: Because these ASOs have become a very critical part of our study, the efficacy of N-SMase and A-SMase ASOs in inhibiting the protein expression of N-SMase and A-SMase was checked by western blot. […] Next, the effect of antisense knockdown of neuronal N-SMase and/or A-SMase on activated glia-induced neuronal apoptosis by TUNEL was investigated. […] As evidenced by a decrease In MTT metabolism, activated astroglia reduced neuronal viability (FIG. 2E).
Primary human neurons were incubated with antisense (ASO) and scrambled oligonucleotides (ScO) against N-SMase (A) and A-SMase (FIG. 2B). After 48 h, neurons were analyzed for protein expression of N-SMase and A-SMase. In FIG. 2C, primary human astrocytes seeded in inserts were stimulated by the combination of Aβ and IL-1β as described above. […] After 6 h of treatment with activated astrocytes, apoptotic events in neurons were detected by TUNEL. In FIG. 2D, TUNEL-positive cells were counted manually in four different images of each of three coverslips by three individuals blinded to the experiment. In FIG. 2E, after 18 h of stimulation, cell viability was examined by the metabolism of MTT and the release of LDH. […] Cell viability was checked by MTT (FIG. 2F) and LDH (FIG. 2G). Values obtained from the control group served as 100%, and data obtained in other groups were calculated as percent of control accordingly. […]

primary human neurons = assay: LDH release from neurons in astrocyte-neuron trans-well; conditions: neurons pretreated with oligonucleotide; 18 h of stimulation
Description: Primary human astrocytes were grown to confluency on inserts. After 24 h of stimulation by the combination of Aβ (1 μM) and IL-Iβ (10 ng/ml), inserts were washed thrice with HBSS and then placed onto the wells containing primary human neurons. Therefore, in this trans-well model, although neurons and astrocytes face each other, they are separable and the effect of soluble factors released from activated astrocytes on neurons can be studied allowing analysis of neuronal and glial populations separately.
The activity of lactate dehydrogenase (LDH) was measured using the direct spectrophotometric assay using an assay kit from Sigma.
Primary human neurons were incubated with antisense (ASO) and scrambled oligonucleotides (ScO) against N-SMase (A) and A-SMase (FIG. 2B). After 48 h, neurons were analyzed for protein expression of N-SMase and A-SMase. In FIG. 2C, primary human astrocytes seeded in inserts were stimulated by the combination of Aβ and IL-1β as described above. […] After 6 h of treatment with activated astrocytes, apoptotic events in neurons were detected by TUNEL. In FIG. 2D, TUNEL-positive cells were counted manually in four different images of each of three coverslips by three individuals blinded to the experiment. In FIG. 2E, after 18 h of stimulation, cell viability was examined by the metabolism of MTT and the release of LDH. […] Values obtained from the control group served as 100%, and data obtained in other groups were calculated as percent of control accordingly. […]
In FIGS. 3A-3E, primary human astrocytes seeded in inserts were stimulated by the combination of Aβ and IL-Iβ as described above. […] In FIG. 3A, after 1 h, activity of N-SMase was measured in total cell extracts of neurons as described above. […] Values obtained from the control group served as 100%, and data obtained in other groups were calculated as percent of control accordingly. […] Primary human neurons were treated with 25 μM DETA-NONOate (a NO donor) and at different time points of treatment, activities of N-SMase (FIG. 3D) and A-SMase (FIG. 3E) were monitored. ^ap<0.001 vs control (0 h).

primary human astroglia = assay: NO synthesis (nitrite, Griess reagent) in primary human astroglia; conditions: astroglia pretreated 40 h with oligonucleotide; nitrite after 24 h of stimulation
Outline: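 Primary human astroglia pretreated 40 h with antisense or scrambled oligonucleotides against N-SMase and A-SMase, then stimulated with fibrillar Aβ plus IL-1β under serum-free conditions. Nitrite was measured in supernatants by Griess reagent after 24 h of stimulation.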

NF-κB = assay: EMSA of NF-κB DNA-binding activity in primary human astroglia; conditions: 1 μM oligonucleotide 40 h; 1 h of stimulation

5′- CAGCGAGCCCGTCCACCAGCC -3′ (DNA, all phosphorothioate, methylation of C not given here) [ASO against N-SMase, ID; NO.: 12]
level of N-SMase protein (N-SMase): effectively inhibited
LDH release from neurons (primary human neurons): significant reduction
(Aβ+IL-1β)-induced production of NO (primary human astroglia): markedly abrogated
(Aβ+IL-1β)-induced DNA-binding activity of NF-κB (NF-κB): suppressed
